Starred links: 1 amine or outer side, 2 acyl side, 3 side chain; linkers in the order of their positions; H or OH if unused. Non-standard residues stand in square brackets, D forms with d. Residues, ends and D or L forms follow the SMILES beside them. No end group written: not given here. Eth = ethionine, CCSCC[C@H](N[*:1])C(=O)[*:2]; Ethionine = CCSCC[C@H](N[*:1])C(=O)[*:2]; hCys = N[C@@H](CCS)C(=O)O
T1: Candida albicans oligopeptide transporter Opt1p (protein product of OPT1) (Candida albicans)
T1 chain: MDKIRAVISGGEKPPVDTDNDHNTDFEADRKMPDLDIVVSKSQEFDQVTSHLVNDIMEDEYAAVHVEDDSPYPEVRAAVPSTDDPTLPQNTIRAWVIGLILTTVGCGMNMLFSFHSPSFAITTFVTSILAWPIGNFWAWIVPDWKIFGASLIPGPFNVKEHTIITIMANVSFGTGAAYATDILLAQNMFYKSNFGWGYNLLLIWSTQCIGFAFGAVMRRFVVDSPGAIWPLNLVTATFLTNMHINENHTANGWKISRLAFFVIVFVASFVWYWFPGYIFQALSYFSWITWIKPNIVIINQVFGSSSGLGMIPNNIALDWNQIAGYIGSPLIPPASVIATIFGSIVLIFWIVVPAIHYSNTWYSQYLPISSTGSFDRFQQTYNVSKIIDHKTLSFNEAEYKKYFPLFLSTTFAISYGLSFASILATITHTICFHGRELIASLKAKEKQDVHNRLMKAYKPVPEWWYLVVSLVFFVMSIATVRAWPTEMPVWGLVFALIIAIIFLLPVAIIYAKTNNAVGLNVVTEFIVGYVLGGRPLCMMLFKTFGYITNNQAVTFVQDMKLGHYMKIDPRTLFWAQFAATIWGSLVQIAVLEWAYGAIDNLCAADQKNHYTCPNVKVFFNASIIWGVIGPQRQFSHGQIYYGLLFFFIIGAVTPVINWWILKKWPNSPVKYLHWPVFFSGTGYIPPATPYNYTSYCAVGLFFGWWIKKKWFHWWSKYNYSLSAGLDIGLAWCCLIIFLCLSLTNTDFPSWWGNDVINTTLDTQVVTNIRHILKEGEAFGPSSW


Columns and labels:
[1] = system: S. cerevisiae PB1X-9B(pOPT1); experiment: Growth assay, peptides as sole source of leucine, PB1X-9B(pOPT1); type: cell-based, Saccharomyces cerevisiae; settings: 100 μM peptide; for utilization of peptide as a sole source of leucine (growth): medium with 0.1% proline as nitrogen source
Description: (§1) To determine the size constraints of peptide utilization mediated by pOPT1, the ability of S. cerevisiae PB1X-9B (a mutant in the di-/tripeptide transporter) harboring either pRS202 (the parent vector) or pOPT1 (pRS202 containing the 3.8 kb insert with the OPT1 gene) to grow on KL, KLG, KLLG SEQ ID NO:6, and KLLLG SEQ ID NO:8 as a sole source of leucine was tested. Previously it has been shown that di-/tripeptide transport activity in C. albicans and S. cerevisiae is regulated by nitrogen; rich nitrogen sources such as ammnonium sulfate repress, while poor nitrogen sources such as proline derepress transport. Therefore simultaneous effect of nitrogen source on oligopeptide transport activity was determined by supplying either ammnonium sulfate or proline as the nitrogen source.
(§2) Peptide medium consisted of minimal medium supplemented with auxotrophic requirements minus the amino acid Seucine plus 100 μM of one of the following peptidest Lysyl-Leucine (KL), Lysyl-Leucyl-Glycine (KLG), Lysyl-Leucyl-Leucyl-Glycine (KLLG) SEQ ID NO:6, Lysyl-Leucyl-Glycyl-Leucine (KLGL) SEQ ID NO:7, or Lysyl-Leucyl-Leucyl-Leucyl-Glycine (KLLLG) SEQ ID NO:8. Abbreviations for toxic peptides and amino acids used herein are as follows: Ethionine (Eth), Alanyl-Ethionine (AEth), Leucyl-Ethionine (LEth), Lysysl-Leucyl-Ethionine (KLEth), Lysyl-Leucyl-Leucyl-Ethionine (KLLEth) SEQ ID NO:12, Lysysl-Leucyl-Alanyl-Ethionine (KLAEth) SEQ ID NO:14, and Lysyl-Leucyl-Leucyl-Leucyl-Ethionine (KLLLEth) SEQ ID NO:13. All amino acids were in the L configuration.
(§3) Growth assays to determine the phenotype of the cells were done as described by Island et al. (1991). Briefly, 3 μl of culture from a suspension of 5×10^6 cells/ml were spotted to the surface of the medium and plates were incubated at 30 iC for 4-7 days.

[2] = system: S. cerevisiae PB1X-9B(pRS202); experiment: Growth assay, peptides as sole source of leucine, PB1X-9B(pRS202); type: cell-based, Saccharomyces cerevisiae; settings: medium with 0.1% proline as nitrogen source; 100 μM peptide
Description: as §1, §2, §3

[3] = system: oligopeptide transporter (OPT1) expressed in S. cerevisiae PB1X-9B; experiment: Peptide transport competition experiment, KLG-[3H]L uptake by PB1X-9B(pOPT1); type: cell-based, Candida albicans; settings: for uptake rate of KLG-[3H]L in the presence of the competitor: SC-Ura with ammonium sulfate; for competition with the uptake of KLG-[3H]L: 10-fold molar excess of competitor, FIG. 7
Description: To more rigorously determine the size constraints of the oligopeptide transporter, the accumulation of KLG-[^3H]L SEQ ID NO:7 was measured in the presence of 10-fold molar excess of the competitors L, KL, KLG, KLLG SEQ ID NO:6, and KLLLG SEQ ID NO:8. […] Uptake rates were calculated from a bestfit of the slope for each set of data. The uptake rate of KLG-[^3H]L SEQ ID NO:7 in the presence of no competitor, L, or KL was […] of dry weight, respectively. When KLG was used as a competitor the uptake rate was 0.12 nmoles/min/mg of dry weight which was approximately 50% of the no-competitor rate. The uptake rate approximated zero when KLLG SEQ ID NO:6 and KLLLG SEQ ID NO:8 were used as competitors.
Uptake of KLG-[^3H]L SEQ ID NO:7 was determined using a protocol for uptake of dipeptides as described by Basrai et al. (1995) with a few modifications. S. cerevisiae cultures were grown overnight to exponential phase in SC-Ura medium. Cells were harvested by centrifugation, and resuspended in 2% glucose at a cell density of 2×10^8 cells/ml. Two hundred and fifty microliters of cell suspension were added to an equal volume of an uptake assay reaction mixture and incubated at 30iC. The final concentrations of the components in the uptake assay solution were: glucose (2%, w/v), 10 mM sodium citrate/potassium phosphate buffer (pH 5.0), and KLG-[^3H]L SEQ ID NO:7 (150 μM; 8.5 mCi/mmol). Competition experiments were done in the presence of either 1.5 mM L, KL, KLG, KLLG SEQ ID NO:6, or KLLLG SEQ ID NO:8. At various time points, 90 μl portions were removed and filtered through a membrane. The yeast cells retained on the filter were washed twice with ice-cold distilled water, once with room temperature distilled water, and the residual radioactivity was measured by liquid scintillation. There was no peptide adsorption to the cell surface or sticking to filters since at 0i C the counts were at background level. The uptake results, calculated on the basis of 50% counting efficiency (determined using L-[^3H]lysine as a standard, and the specific activity of the peptide), were expressed as nmol of peptide uptake per minute per mg cell dry weight.

[4] = system: S. cerevisiae PB1X-9B(pOPT1); type: cell-based, Saccharomyces cerevisiae; settings: 0.38 μmoles per 6 mm disk; for zone of growth inhibition / sensitivity: 0.1% proline as nitrogen source; for zone of growth inhibition: ammonium sulfate as nitrogen source, 24-48 hr
Description: (§4) S. cerevisiae PB1X-9B is sensitive to the toxic amino acid ethionine Eth) but is resistant to ethionine containing di-, tri-, tetra-, and pentapeptides. Disk sensitivity assays was utilized to determine if cells transformed with pOPT1 were sensitive to toxic peptides and whether this sensitivity was dependent upon nitrogen source.
(§5) Sensitivity to ethionine, a toxic methionine analog, and ethionine-containing peptides was determined by the method described by Island et al. (1987). Cells were grown overnight to exponential phase of growth in SC, washed, and resuspended at 5×10^6 cells /ml in sterile water. One ml of this cell suspension was added to 3 ml molten Noble agar (0.8% final concentration) and overlayed on 20 ml of the same medium used to prepare the inoculum. A disk (6 mm diameter, Difco) was placed on the plate and 0.38 μmoles of the compounds to be tested were applied to the disks. Zones of inhibition were measured after 24-48 hr incubation at 30 iC. Each test comprised at least three independent assays and the results represented in the Tables are means of the values obtained. Maximum variation between the zones of inhibition measured for each test were ^23 mm. A value of 7 mm for the diameter of zone of inhibition represents a minimal growth inhibition value as the disk diameter was 6 mm. Photodocumentation of sensitivity assays was done with a Umax Scanner and processed through Adobe Photoshop.

[5] = system: S. cerevisiae PB1X-9B(pRS202); experiment: Disk sensitivity assay to ethionine-containing peptides, PB1X-9B(pRS202); type: cell-based, Saccharomyces cerevisiae; settings: for zone of growth inhibition / sensitivity: 0.1% proline as nitrogen source, 0.38 μmoles per 6 mm disk; for zone of growth inhibition: medium containing ammonium sulfate
Description: as §4, §5

[6] = system: S. cerevisiae PB1X-9B(pRS202); experiment: Peptide transport assay, accumulation of KLG-[3H]L, PB1X-9B(pRS202); type: cell-based, Saccharomyces cerevisiae; settings: cells grown in SC-Ura with 0.1% proline
Description: To determine if S. cerevisiae transformants harboring pOPT1 could accumulate a radiolabeled tetrapeptide, uptake assays were performed with the radiolabeled substrate KLG-[^3H]L SEQ ID NO:7 with cells grown to log phase in SC-Ura with either ammonium sulfate or 0.1% proline as a nitrogen source. […] This higher initial rate can be explained by overexpression due to high copy number or alternatively by the lack of requisite regulatory elements which may be absent in the heterologous host.
Uptake of KLG-[^3H]L SEQ ID NO:7 was determined using a protocol for uptake of dipeptides as described by Basrai et al. (1995) with a few modifications. S. cerevisiae cultures were grown overnight to exponential phase in SC-Ura medium. Cells were harvested by centrifugation, and resuspended in 2% glucose at a cell density of 2×10^8 cells/ml. […] The yeast cells retained on the filter were washed twice with ice-cold distilled water, once with room temperature distilled water, and the residual radioactivity was measured by liquid scintillation. […] The uptake results, calculated on the basis of 50% counting efficiency (determined using L-[^3H]lysine as a standard, and the specific activity of the peptide), were expressed as nmol of peptide uptake per minute per mg cell dry weight.

[7] = target: T1, Candida albicans oligopeptide …; experiment: cell-based or functional assay
[8] = 10-fold molar excess (1.5 mM) of competitor

Row | Molecule | uptake rate of KLG-[3H]L in the presence of the competitor [3, 8] | competition with the uptake of KLG-[3H]L [3] | zone of growth inhibition / sensitivity [4] | zone of growth inhibition / sensitivity [5] | other results
1 | CC(C)C[C@H](NC(=O)[C@H](CC(C)C)NC(=O)[C@@H](N)CCCCN)C(=O)NCC(=O)O [KLLG, Lysyl-Leucyl-Leucyl-Glycine] (H-KLLG-OH) | zero | competition was seen | – | – | utilization of peptide as a sole source of leucine (growth) [1]: able to utilize; utilization of peptide as a source of leucine (growth) ([1]; medium with ammonium sulfate as nitrogen source): able to utilize; utilization of peptide as a sole source of leucine (growth) [2]: not able to utilize
2 | KLLAEth: ethionine-containing toxic pentapeptide, SEQ ID NO:15 (KLLA[Eth]) | – | – | zone of complete growth inhibition | not for PB1X-9B(pRS202) | zone of growth inhibition [5]: not PB1X-9B(pRS202)
3 | CCSCC[C@H](NC(=O)[C@H](CC(C)C)NC(=O)[C@H](CC(C)C)NC(=O)[C@@H](N)CCCCN)C(=O)O [KLLEth, Lysyl-Leucyl-Leucyl-Ethionine] (H-KLL[hCys](Et)-OH) | – | – | zone of complete growth inhibition | not for PB1X-9B(pRS202) | zone of growth inhibition [5]: not PB1X-9B(pRS202)
4 | CCSCC[C@H](NC(=O)[C@H](C)N)C(=O)O [AEth, Alanyl-Ethionine] (H-Ala-[hCys](Et)-OH) | – | – | Neither strain exhibited sensitivity | Neither strain exhibited sensitivity | zone of growth inhibition [4]: no zone of growth inhibition
5 | CC(C)C[C@H](N)C(=O)O [L, leucine] | 0.25 nm/min/mg of dry weight | do not compete | – | – | –
6 | CC(C)C[C@H](NC(=O)[C@@H](N)CCCCN)C(=O)NCC(=O)O [KLG, Lysyl-Leucyl-Glycine] (H-Lys-Leu-Gly-OH) | 0.12 nmoles/min/mg of dry weight | decreased competition | – | – | utilization of peptide as a sole source of leucine (growth) [1]: No growth; utilization of peptide as a sole source of leucine (growth) [2]: No growth; uptake rate with competitor as percent of the no-competitor rate [3, 8]: approximately 50%
7 | CC(C)C[C@H](NC(=O)CNC(=O)[C@H](CC(C)C)NC(=O)[C@@H](N)CCCCN)C(=O)O [KLGL, Lysyl-Leucyl-Glycyl-Leucine] (H-KLGL-OH) | – | – | – | – | accumulation of tetrapeptide [6]: did accumulate
8 | CCSCC[C@H](NC(=O)[C@@H](N)CC(C)C)C(=O)O [LEth, Leucyl-Ethionine] (H-Leu-[hCys](Et)-OH) | – | – | – | – | zone of growth inhibition [4]: no zone of growth inhibition
9 | Lysysl-Leucyl-Alanyl-Ethionine (KLA[Ethionine]) [KLAEth] | – | – | zone of complete growth inhibition | not for PB1X-9B(pRS202) | zone of growth inhibition [5]: not PB1X-9B(pRS202)
10 | KLLLG [KLLLG, Lysyl-Leucyl-Leucyl-Leucyl-Glycine] | zero | competition was seen | – | – | utilization of peptide as a sole source of leucine (growth) [1]: No growth; utilization of peptide as a sole source of leucine (growth) [2]: No growth
11 | CC(C)C[C@H](NC(=O)[C@@H](N)CCCCN)C(=O)O [KL, Lysyl-Leucine] (H-Lys-Leu-OH) | 0.26 nm/min/mg of dry weight | do not compete | – | – | utilization of peptide as a sole source of leucine (growth) [1]: No growth; utilization of peptide as a sole source of leucine (growth) [2]: No growth
12 | Lysysl-Leucyl-Ethionine [KLEth] | – | – | Neither strain exhibited sensitivity | Neither strain exhibited sensitivity | zone of growth inhibition [4]: no zone of growth inhibition
13 | KLG [Lysyl-Leucyl-Glycine] | – | – | – | – | uptake rate of KLG-[3H]L in the presence of a 10-fold molar excess of the competitor [7]: 0.12 nmoles/min/mg of dry weight
14 | KL [Lysyl-Leucine] | – | – | – | – | uptake rate of KLG-[3H]L in the presence of a 10-fold molar excess of the competitor [7]: 0.26 nm/min/mg of dry weight

— US6441134B1, “Isolated Candida albicans oligopeptide transporter gene” (The University of Tennessee Research Corporation, dated 2002)
